Earlier results as cited in publication PMC10322880 (Communications Biology, 2023).

Tested on: SARS-CoV-2
Conditions: phase 2/3 clinical trial

Cn1cnc(Cn2c(=O)[nH]/c(=N\c3cc4cn(C)nc4cc3Cl)n(Cc3cc(F)c(F)cc3F)c2=O)n1 [ensitrelvir]
SARS-CoV-2 clearance: rapid SARS-CoV-2 clearance | tolerability: well tolerated
